# Results reported in patent US20030203372A1, “Analysis method” (priority 2000, published 2003).
# Tests used:
# [1] = Hypoxia response of the referenced genes/sequences, summary in cross-reference Table 26; format: cell-based, human; conditions: direction of expression change of the gene/sequence in response to hypoxia
# [2] = tested on: primary human cell cultures (11 cell types); experiment: Custom gene array, 11 human cell types in normoxia or hypoxia for 6 hr and 18 hr; format: cell-based
# Protocol: Equivalent cultures of non-immortalized, non-transformed primary human cells of 10 distinct types, were cultured in either normoxia or were exposed to hypoxia for 6 hr and 18 hr, and gene expression changes were determined. […] Moreover, unlike the vast majority of information in the public domain relating to genes responsive to hypoxia, all of these cells were human and were cultured without any modifications following isolation from the human donors.
# A non-primary cell type (#9) was used to represent neurons, since primary human neurons are difficult to source. Therefore a total of 11 cell types are compared. It should be noted that RNA from hepatocytes at the […] timepoint of hypoxia was not available for this work.
# Each RNA sample was hybridised to duplicate or triplicate arrays, to ensure reproducible data, and was analysed using GeneSpring software. Data from replicate arrays were merged during analysis to generate mean values. Data normalisation was achieved per-array using the aforementioned list of control genes, such that differences in RNA labelling or hybridization due to experimental variation were corrected by referencing each gene to the mean value of the reference genes on the same array. Also, for each gene, expression values were obtained which represent the value in each experimental condition (e.g. macrophages 6 hr hypoxia) as compared to the median of value of that gene throughout the full range of experimental conditions (i.e. from all cell types). […] This is common in microarray data analysis.
# [3] = tested on: primary human macrophages; experiment: Custom gene array, macrophages exposed to hypoxia and/or IL-15; format: cell-based; conditions: relative to no cytokine, 20% oxygen = 1
# Protocol: Gene expression levels were measured and compared using the custom gene array. In data analysis per-gene normalisation was set up such that expression values represent the fold-change compared with the expression in untreated normoxic cells. Genes which are increased in expression in response to TNFα by at least 2-fold, in either normoxic or hypoxic cells, are shown in Table 20. Genes which are decreased in expression in response to TNFα by at least 2-fold, in either normoxic or hypoxic cells, are shown in Table 21.
# The cytokine IL-15 is implicated in several disease in which macrophages and hypoxia both feature as elements of the inflammatory state, such as in atherosclerosis (Wuttge D M et al Am J Pathol. 2001 159:417-23) and rheumatoid arthritis (McInnes I B et al Immunol Today. 1998 19:75-9). Although the main target of IL-15 is T-cells effects have also been shown on monocytes (Badolato R et al Blood. 1997 90:2804-9). Therefore genes which respond to both hypoxia and IL-15 are especially likely to be relevant to disease processes and have utility in the design of therapeutic products. Genes which are increased in expression in response to IL-15 by at least 2-fold, in either normoxic or hypoxic cells, are shown in Table 24. Genes which are decreased in expression in response to IL-15 by at least 2-fold, in either normoxic or hypoxic cells, are shown in Table 25.
# HIF = experiment: HRE-Luc luciferase reporter assay of HIF activity in transiently transfected 293T cells (evaluation of HIF prolyl hydroxylase inhibitors and EGLN3 isoforms); format: cell-based, human; conditions: normoxia, even when full length EGLN3 protein or EGLN3 splice variant was over-expressed; MIMO 0.4 mM
# Protocol: As discussed above, the stability of HIF is controlled by proline hydroxylation, catalysed by the product of the EGLN3 gene which renders the HIF protein unstable. EGLN3 is only active in normoxia since the reaction that it catalyses requires oxygen.
# Plasmid CMV-SVFL1 expresses full length EGLN3. Plasmid CMV-SVFL2 expresses the EGLN3 splice variant.
# Three plasmid transfections were performed and pCIneo was used as the “stuffing”/control plasmid to fill the vacancies.
# Transfected 293 cells were incubated under normoxia till the end of the experiment.
compound,measurement,setting,value
Monocyte chemotactic protein 1,Hypoxia response,[1],Repression
p1G10,mRNA expression level,"[2]; cell type #1, HY (hypoxia) 6 hr",0.61
same,mRNA expression level,"[2]; cell type #1, HY (hypoxia) 18 hr",1.52
same,mRNA expression level,"[2]; cell type #1, NO (normoxia)",1.01
same,mRNA expression level,"[2]; cell type #2, HY (hypoxia) 6 hr",1.76
same,mRNA expression level,"[2]; cell type #2, HY (hypoxia) 18 hr",1.65
same,mRNA expression level,"[2]; cell type #2, NO (normoxia)",1.69
same,mRNA expression level,"[2]; cell type #3, HY (hypoxia) 6 hr",3.58
same,mRNA expression level,"[2]; cell type #3, HY (hypoxia) 18 hr",2.49
same,mRNA expression level,"[2]; cell type #3, NO (normoxia)",2.01
same,mRNA expression level,"[2]; cell type #4, HY (hypoxia) 6 hr",1.13
same,mRNA expression level,"[2]; cell type #4, HY (hypoxia) 18 hr",0.99
same,mRNA expression level,"[2]; cell type #4, NO (normoxia)",1.32
same,mRNA expression level,"[2]; cell type #5, HY (hypoxia) 6 hr",0.65
same,mRNA expression level,"[2]; cell type #5, NO (normoxia)",0.44
same,mRNA expression level,"[2]; cell type #6, HY (hypoxia) 6 hr",0.62
same,mRNA expression level,"[2]; cell type #6, NO (normoxia)",0.44
IL-15,"ABL expression (clone p1H8, Seq ID 182)",[3]; 0.1% oxygen,0.09
same,"Abstrakt expression (clone p1C14, Seq ID 384)",[3]; 0.1% oxygen,1.24
same,"Adipophilin expression (clone p1B6, Seq ID 314)",[3]; 0.1% oxygen,2.39
same,"Adipophilin expression (clone p1B7, Seq ID 314)",[3]; 0.1% oxygen,2.02
same,"Adipophilin expression (clone p1B8, Seq ID 314)",[3]; 0.1% oxygen,1.42
same,"Adipophilin expression (clone p1B9, Seq ID 314)",[3]; 0.1% oxygen,1.66
same,"Aldolase C expression (clone p1A19, Seq ID 260)",[3]; 0.1% oxygen,1.30
same,"D123 expression (clone p1C7, Seq ID 370)",[3]; 0.1% oxygen,0.90
same,"EST expression (clone p1D19, Seq ID 144)",[3]; 0.1% oxygen,1.39
same,"EST expression (clone p1H6, Seq ID 192)",[3]; 0.1% oxygen,0.67
same,"EST expression (clone p2A14, Seq ID 446)",[3]; 0.1% oxygen,0.51
same,"Fatty-acid-Coenzyme A ligase, long-chain 2 expression (clone p1J11, Seq ID 466)",[3]; 0.1% oxygen,1.29
same,"GAPDH expression (clone p1A11, Seq ID 254)",[3]; 0.1% oxygen,4.32
same,"Glucose phosphate isomerase expression (clone p1C6, Seq ID 368)",[3]; 0.1% oxygen,3.13
same,"Glycogen synthase 1 expression (clone p1G24, Seq ID 276)",[3]; 0.1% oxygen,0.55
same,"Hypoxia-inducible protein 2 expression (clone p1D8, Seq ID 272)",[3]; 0.1% oxygen,0.62
same,"Keratin 6B expression (clone p1K14, Seq ID 422)",[3]; 0.1% oxygen,0.11
same,"Lactate dehydrogenase A expression (clone p1A8, Seq ID 224)",[3]; 0.1% oxygen,2.29
same,"Lactate dehydrogenase A expression (clone p1A9, Seq ID 224)",[3]; 0.1% oxygen,1.83
same,"Metallothionein 2A expression (clone p1A23, Seq ID 266)",[3]; 0.1% oxygen,3.08
same,"Neutral sphingomyelinase (N-SMase) activation associated factor expression (clone p1J22, Seq ID 428)",[3]; 0.1% oxygen,0.11
same,"Proline 4-hydroxylase, alpha polypeptide II expression (clone p1B4, Seq ID 350)",[3]; 0.1% oxygen,1.34
same,"SCYA2 expression (clone p1P5, Seq ID 396)",[3]; 0.1% oxygen,1.37
same,"SCYA7 expression (clone p1J5, Seq ID 464)",[3]; 0.1% oxygen,1.61
same,"SCYA8 expression (clone p1I21, Seq ID 480)",[3]; 0.1% oxygen,1.55
same,"Triosephosphate isomerase 1 expression (clone p1A20, Seq ID 262)",[3]; 0.1% oxygen,1.22
same,"Uridine 5′ monophosphate hydrolase 1 expression (clone p1I7, Seq ID 50)",[3]; 0.1% oxygen,3.61
same,"cDNA: FLJ23019 fis, clone LNG00916 expression (clone p1J16, Seq ID 454)",[3]; 0.1% oxygen,7.27
same,"hypothetical protein FLJ10206 expression (clone p1J6, Seq ID 40)",[3]; 0.1% oxygen,0.18
same,"hypothetical protein FLJ22690 expression (clone p1H5, Seq ID 206)",[3]; 0.1% oxygen,1.59
same,"hypothetical protein MGC4549 expression (clone p1I12, Seq ID 152)",[3]; 0.1% oxygen,0.28
same,"ABL expression (clone p1H8, Seq ID 182)",[3]; 20% oxygen,1.22
same,"Abstrakt expression (clone p1C14, Seq ID 384)",[3]; 20% oxygen,0.40
same,"Adipophilin expression (clone p1B6, Seq ID 314)",[3]; 20% oxygen,0.37
same,"Adipophilin expression (clone p1B7, Seq ID 314)",[3]; 20% oxygen,0.30
same,"Adipophilin expression (clone p1B8, Seq ID 314)",[3]; 20% oxygen,0.23
same,"Adipophilin expression (clone p1B9, Seq ID 314)",[3]; 20% oxygen,0.41
same,"Aldolase C expression (clone p1A19, Seq ID 260)",[3]; 20% oxygen,0.35
same,"D123 expression (clone p1C7, Seq ID 370)",[3]; 20% oxygen,0.47
same,"EST expression (clone p1D19, Seq ID 144)",[3]; 20% oxygen,2.27
same,"EST expression (clone p1H6, Seq ID 192)",[3]; 20% oxygen,1.95
same,"EST expression (clone p2A14, Seq ID 446)",[3]; 20% oxygen,1.08
same,"Fatty-acid-Coenzyme A ligase, long-chain 2 expression (clone p1J11, Seq ID 466)",[3]; 20% oxygen,1.64
same,"GAPDH expression (clone p1A11, Seq ID 254)",[3]; 20% oxygen,0.52
same,"Glucose phosphate isomerase expression (clone p1C6, Seq ID 368)",[3]; 20% oxygen,0.57
same,"Glycogen synthase 1 expression (clone p1G24, Seq ID 276)",[3]; 20% oxygen,0.88
same,"Hypoxia-inducible protein 2 expression (clone p1D8, Seq ID 272)",[3]; 20% oxygen,1.25
same,"Keratin 6B expression (clone p1K14, Seq ID 422)",[3]; 20% oxygen,1.48
same,"Lactate dehydrogenase A expression (clone p1A8, Seq ID 224)",[3]; 20% oxygen,0.48
same,"Lactate dehydrogenase A expression (clone p1A9, Seq ID 224)",[3]; 20% oxygen,0.49
same,"Metallothionein 2A expression (clone p1A23, Seq ID 266)",[3]; 20% oxygen,1.26
same,"Neutral sphingomyelinase (N-SMase) activation associated factor expression (clone p1J22, Seq ID 428)",[3]; 20% oxygen,1.51
same,"Proline 4-hydroxylase, alpha polypeptide II expression (clone p1B4, Seq ID 350)",[3]; 20% oxygen,0.50
same,"SCYA2 expression (clone p1P5, Seq ID 396)",[3]; 20% oxygen,4.51
same,"SCYA7 expression (clone p1J5, Seq ID 464)",[3]; 20% oxygen,3.27
same,"SCYA8 expression (clone p1I21, Seq ID 480)",[3]; 20% oxygen,3.77
same,"Triosephosphate isomerase 1 expression (clone p1A20, Seq ID 262)",[3]; 20% oxygen,0.36
same,"Uridine 5′ monophosphate hydrolase 1 expression (clone p1I7, Seq ID 50)",[3]; 20% oxygen,4.98
same,"cDNA: FLJ23019 fis, clone LNG00916 expression (clone p1J16, Seq ID 454)",[3]; 20% oxygen,5.76
same,"hypothetical protein FLJ10206 expression (clone p1J6, Seq ID 40)",[3]; 20% oxygen,1.28
same,"hypothetical protein FLJ22690 expression (clone p1H5, Seq ID 206)",[3]; 20% oxygen,2.37
same,"hypothetical protein MGC4549 expression (clone p1I12, Seq ID 152)",[3]; 20% oxygen,1.64
CCOC(=O)c1ccc(O)c(O)c1 [EDB],HIF-PH inhibition,HIF,work as HIF-PH inhibitors
Interleukin 8,Hypoxia response,[1],Increase
